Test results taken from ChEMBL document CHEMBL3124796, “Suzuki coupling based synthesis and in vitro cytotoxic evaluation of 7-heteroaryl-substituted camptothecin analogs” (Bioorg Med Chem Lett, 2014).
pIC50: −log10 of the molar value. Active and inactive are the calls of the source. The calls are words filed in the database; no cut-off is given here.

Tests used:
[1] = system: HCT-116; experiment: Cytotoxicity against human HCT116 cells; assay type: functional, cell-based
[2] = system: A549; experiment: Cytotoxicity against human A549 cells; assay type: functional, cell-based
[3] = system: A549; experiment: Cytotoxicity against human A549 cells assessed as growth inhibition after 3 days by SRB assay; assay type: functional, cell-based; details: A549, 72 h
[4] = system: HT-29; experiment: Cytotoxicity against human HT-29 cells assessed as growth inhibition after 3 days by SRB assay; assay type: functional, cell-based; details: HT-29, 72 h
[5] = system: MDA-MB-231; experiment: Cytotoxicity against human MDA-MB-231 cells; assay type: functional, cell-based
[6] = system: HCT-116; experiment: Cytotoxicity against human HCT116 cells assessed as growth inhibition after 3 days by SRB assay; assay type: functional, cell-based; details: HCT-116, 72 h
[7] = target: T1, DNA topoisomerase 1 (Homo sapiens) (UniProt P11387); experiment: Inhibition of topoisomerase 1 (unknown origin)-mediated relaxation of supercoiled pBR322 DNA at 100 uM by agarose gel electrophoresis
T1 sequence (whole entry): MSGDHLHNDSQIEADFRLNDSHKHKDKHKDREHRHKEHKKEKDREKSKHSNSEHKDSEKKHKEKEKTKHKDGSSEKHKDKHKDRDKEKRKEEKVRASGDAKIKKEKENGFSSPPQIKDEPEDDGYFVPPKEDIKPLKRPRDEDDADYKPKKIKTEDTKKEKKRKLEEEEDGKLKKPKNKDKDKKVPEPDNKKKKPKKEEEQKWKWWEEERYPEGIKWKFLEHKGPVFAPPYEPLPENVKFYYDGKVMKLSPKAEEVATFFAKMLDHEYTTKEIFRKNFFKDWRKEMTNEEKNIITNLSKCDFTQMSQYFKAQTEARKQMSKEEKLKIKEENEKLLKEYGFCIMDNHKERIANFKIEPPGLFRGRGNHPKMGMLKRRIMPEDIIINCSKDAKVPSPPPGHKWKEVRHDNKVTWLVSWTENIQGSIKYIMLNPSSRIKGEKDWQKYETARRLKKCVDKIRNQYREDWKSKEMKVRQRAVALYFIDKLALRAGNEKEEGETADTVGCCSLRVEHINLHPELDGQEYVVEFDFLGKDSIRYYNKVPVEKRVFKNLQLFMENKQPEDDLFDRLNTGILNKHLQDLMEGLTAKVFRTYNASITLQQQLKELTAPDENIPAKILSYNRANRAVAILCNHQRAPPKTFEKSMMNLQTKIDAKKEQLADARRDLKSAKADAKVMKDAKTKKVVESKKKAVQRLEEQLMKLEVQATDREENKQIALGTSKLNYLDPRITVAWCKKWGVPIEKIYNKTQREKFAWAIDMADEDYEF

[8] = target: T1, DNA topoisomerase 1 (Homo sapiens); experiment: Inhibition of topoisomerase 1 (unknown origin)-mediated relaxation of supercoiled pBR322 DNA at 10 uM by agarose gel electrophoresis

Row | Structure (SMILES) | pIC50 [1] | pIC50 [2] | pIC50 [3] | pIC50 [4] | pIC50 [5] | pIC50 [6] | inhibition [7] | inhibition [8]
1 | CCc1c2c(nc3ccc(O)cc13)-c1cc3c(c(=O)n1C2)COC(=O)[C@]3(O)CC [7-ETHYL-10-HYDROXYCAMPTOTHECIN] | 6.78 | 6.59 | 8.57 | 6.97 | 6.75 | 7.51 |  | 
2 | CCCCn1cc(-c2c3c(nc4ccccc24)-c2cc4c(c(=O)n2C3)COC(=O)[C@]4(O)CC)nn1 | 7.85 | > 8.00 |  |  | > 8.00 |  |  | 
3 | CC[C@@]1(O)C(=O)OCc2c1cc1n(c2=O)Cc2c-1nc1ccccc1c2-c1ccc2cc[nH]c2c1 |  |  | 7.95 | 6.64 |  | 7.08 | Active | 
4 | CC[C@@]1(O)C(=O)OCc2c1cc1n(c2=O)Cc2c-1nc1ccccc1c2-c1cccnc1 |  |  | 8.30 | 6.88 |  | 7.22 | inactive | 
5 | CC[C@@]1(O)C(=O)OCc2c1cc1n(c2=O)Cc2c-1nc1ccccc1c2-c1cnn(C)c1 |  |  | 8.55 | 7.66 |  | 8.45 | Active | Active
6 | CC[C@@]1(O)C(=O)OCc2c1cc1n(c2=O)Cc2c-1nc1ccccc1c2-c1ccc2cn[nH]c2c1 |  |  | 8.50 | 7.24 |  | 7.96 | Active | 
7 | CC[C@@]1(O)C(=O)OCc2c1cc1n(c2=O)Cc2c-1nc1ccccc1c2-c1ccnn1C |  |  | 7.25 | < 6.00 |  | 6.34 | inactive | 
8 | CC[C@@]1(O)C(=O)OCc2c1cc1n(c2=O)Cc2c-1nc1ccccc1c2-c1ccncc1 |  |  | 8.20 | 7.01 |  | 7.34 | inactive | 
9 | CC[C@@]1(O)C(=O)OCc2c1cc1n(c2=O)Cc2c-1nc1ccccc1c2-c1cnn(C2CCCCO2)c1 (stereo partly drawn) |  |  | 8.14 | 7.04 |  | 7.40 | Active | 
